In article PMC2749030, “New stably transfected bioluminescent cells expressing FLAG epitope-tagged estrogen receptors to study their chromatin recruitment” (BMC Biotechnology, 2009):
pEC50: −log10 of the molar value.

Assays:
[1] = biological target: T1, FLAG-ERα (Homo sapiens, UniProt P03372); assay: ERE-driven luciferase transactivation assay in HELN-Fα cells; format: cell-based; details: 16 hr stimulation, luciferase activity, 100% = 10 nM E2
T1 construct: expressed in transfected cells; pSG5-puro plasmid
T1 sequence (P03372 1-595): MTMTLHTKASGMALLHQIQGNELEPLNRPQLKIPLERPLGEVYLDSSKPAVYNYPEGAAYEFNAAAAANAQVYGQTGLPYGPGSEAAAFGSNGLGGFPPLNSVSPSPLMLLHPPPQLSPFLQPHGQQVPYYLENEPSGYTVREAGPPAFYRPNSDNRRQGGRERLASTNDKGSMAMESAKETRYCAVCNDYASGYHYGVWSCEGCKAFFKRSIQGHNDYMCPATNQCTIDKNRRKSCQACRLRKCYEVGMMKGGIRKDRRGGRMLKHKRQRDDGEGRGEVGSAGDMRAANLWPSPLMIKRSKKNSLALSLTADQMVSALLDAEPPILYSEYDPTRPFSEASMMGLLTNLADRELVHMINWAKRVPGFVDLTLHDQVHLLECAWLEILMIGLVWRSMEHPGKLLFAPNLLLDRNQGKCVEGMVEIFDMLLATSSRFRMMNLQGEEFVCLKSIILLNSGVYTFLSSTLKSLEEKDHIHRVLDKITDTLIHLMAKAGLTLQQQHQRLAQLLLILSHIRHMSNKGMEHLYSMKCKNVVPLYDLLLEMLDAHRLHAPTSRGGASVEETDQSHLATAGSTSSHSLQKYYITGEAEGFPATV
Procedure: (§1) Cells were incubated with compounds for 16 h. At the end of the incubation, effector containing medium was removed and replaced by 0.3 mM luciferin containing 6% DCC-FCS. At this concentration, luciferin diffuses into the cell and produces a stable luminescent signal. The 96-well plate was then introduced in a microplate luminometer (Microbeta, Wallac) and intact living cell luminescence measured for 2 s. EC50 values were evaluated using Graph-Pad Prism Statistics software (version 4.0; Graph-Pad Software Inc., San Diego, CA, USA).

[2] = biological target: T2, FLAG-ERβ (Homo sapiens, UniProt Q92731); assay: ERE-driven luciferase transactivation assay in HELN-Fβ cells; format: cell-based; details: HELN-Fβ versus HELN-Fα cells, 16 hr
T2 construct: FLAG-ERβ (full length version of 530 amino acids); expressed in transfected cells; pSG5-puro plasmid
T2 sequence (Q92731 whole entry): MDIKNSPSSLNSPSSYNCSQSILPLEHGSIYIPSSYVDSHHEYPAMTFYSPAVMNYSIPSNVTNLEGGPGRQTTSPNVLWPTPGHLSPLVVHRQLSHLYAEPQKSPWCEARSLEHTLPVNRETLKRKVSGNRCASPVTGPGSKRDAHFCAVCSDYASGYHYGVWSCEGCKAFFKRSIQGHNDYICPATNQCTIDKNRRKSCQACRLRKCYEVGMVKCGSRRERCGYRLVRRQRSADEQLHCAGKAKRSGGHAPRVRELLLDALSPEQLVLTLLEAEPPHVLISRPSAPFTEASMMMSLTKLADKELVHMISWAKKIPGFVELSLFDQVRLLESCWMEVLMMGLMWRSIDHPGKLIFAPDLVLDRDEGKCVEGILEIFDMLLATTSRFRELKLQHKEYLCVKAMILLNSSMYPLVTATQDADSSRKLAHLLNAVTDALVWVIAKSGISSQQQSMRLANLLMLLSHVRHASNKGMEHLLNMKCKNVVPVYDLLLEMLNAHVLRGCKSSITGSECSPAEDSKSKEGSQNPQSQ
Procedure: as §1

[3] = test system: ERα; design: method as in PMID 11708925, PMID 11150164; details: ERα selective agonist; RBA = 100 for estradiol; cited from earlier work

CCCc1c(-c2ccc(O)cc2)nn(-c2ccc(O)cc2)c1-c1ccc(O)cc1 [PPT, Propylpyrazoletriol]
pEC50 [1]: 9.82 | activation of ERβ (in words) [2]: activated only ERα | relative binding activity (RBA) [3]: 49
